In turn, `CS(=O)(=O)Nc1nc(CN2CCC(c3c[nH]c4ccccc34)CC2)cs1` registered a melting point of 215 to 217 °C.

In the case of `COC(=O)/C=C(\C)c1ccc2c(c1)C(C)(C)OC(=O)N2`, the melting point lay in the range of 131 to 132 °C.

In turn, `Cc1ccc(C(=O)Oc2c(N3CCCC3)c(=O)n(-c3ccccc3)c3ncccc23)cc1` gave a melting point of 216 to 217 °C.

For `COc1ccc(S(=O)(=O)CC(O)(CS(=O)(=O)c2ccc(OC)cc2)C(=O)NO)cc1`, the melting point is 75 to 80 °C.

In turn, `CC(=O)N1CCC(NC(=O)Nc2ccccc2CCc2cc(C(C)(C)C)c(O)c(C(C)(C)C)c2)CC1` gave a melting point of 218 to 221 °C.

The compound `CC(C)(C)c1cc(-c2ccc(F)cc2)cc(C(C)(C)C)c1O` yielded a melting point of 97 to 99 °C.

Turning to `Cc1cc(C)nc(Oc2cccc(Oc3ncc(Cl)cn3)c2)n1`, the melting point is 142 °C.

`CC(=O)OCC1OC(n2cc(C=O)c3c(F)cccc32)C(OC(C)=O)C(OC(C)=O)C1OC(C)=O` (stereo not drawn) registered a melting point of 190 to 192 °C.

Compound `COc1ccc(Cn2ccn(C3CCc4ccccc4C3)c2=S)cc1OC` (stereo not drawn) returned a melting point of 129 to 131 °C.

Compound `CC1(C)CN(Cc2ccccc2)c2cc(Cl)cc(C(=O)NC3CN4CCC3CC4)c2O1` (stereo not drawn) registered a melting point of 174 to 175 °C.

For `O=[N+]([O-])c1ccc(CN(CCO)CCO)cc1`, the melting point fell in the range of 74 to 75 °C.

Consider `FC(F)(F)c1cc2c(cc1Cl)C(Cl)Cc1ccccc1S2` (stereo not drawn), for which the melting point is 100 to 102 °C.

As to `CCCCc1nc2ccccn2c(=O)c1-c1ccc(NC[C@H]2CCCO2)cc1`, the melting point was in the range of 155 to 170 °C.

In turn, `COc1ccc2nc3c(nc2c1)SC(C#N)=C(C#N)S3` registered a melting point of 154 to 156 °C.

In turn, `CC1Oc2c(cc(CN3CCN(c4ccc(C#N)cc4)CC3)cc2C2CC2)NC1=O` (stereo not drawn) displayed a melting point of 194 to 196 °C.

Compound `COc1ccnc(C(C)Sc2nc3cc(OC(F)(F)C(F)Cl)ccc3[nH]2)c1` (stereo not drawn) returned a melting point of 120 to 122 °C.

`CCOC(=O)Nc1ccc(C23CC4CC(CC(C4)C2)C3)cc1` came in with a melting point of 132 to 134 °C.

`COc1ccc(N2CCN(c3c(C)c(C)c4c(c3C)C(Nc3ccccc3)C(C)(C)O4)CC2)cc1` (stereo not drawn) registered a melting point of 90 to 94 °C.

Take `NS(=O)c1ccccc1` (stereo not drawn): the melting point lay in the range of 112 to 115 °C.

Take `CCOC(=O)N1C(=O)NC(C)=C(C(=O)OC)C1c1cccc(Cl)c1Cl` (stereo not drawn): the melting point lay within 159 to 160 °C.

Regarding `O=S(=O)(NS(=O)(=O)OCC(F)(F)F)OCC(F)(F)F`, the melting point was 55 to 58 °C.

Turning to `COc1ccc(C2=C(CC(C)N(CCO)C(C)C)C(=O)NCCC2)cc1` (stereo not drawn), the melting point is 109 to 111 °C.

The compound `COc1ccc(S(=O)(=O)N(C)C)cc1-c1ccc(CN2CCCCC2)[nH]1` came in with a melting point of 78 to 79 °C.

On to `Nc1cccc(Nc2ncnc3[nH]cc(C(=O)c4ccccc4)c23)n1`, for which the melting point was above 300 °C.

`CS(=O)(=O)N1CCS(=O)c2ccccc2C1` (stereo not drawn) gave a melting point of 195 to 197 °C.

Turning to `Cc1ccccc1CC(=O)c1cc(O)c(O)c([N+](=O)[O-])c1`, the melting point lay within 128 to 129 °C.

`CC(=O)n1cccc(O)c1=O` had a melting point of 140 to 141 °C.

`NS(=O)(=O)c1ccc(-n2nc(C(F)(F)F)cc2-c2ccc(F)cc2)cc1F` returned a melting point of 127 to 130 °C.

In the case of `COC(=O)CCCc1cc2cc(Cl)ccc2n1S(=O)(=O)c1ccc(OC)cc1`, the melting point is 97 to 98 °C.

`O=C(CO)NCCCn1c(-c2ccc(Br)cc2)csc1=Nc1ccccc1` yielded a melting point of 185 to 186 °C.

Compound `NC(=O)c1ccc(F)c2c1OCC(N)C2` (stereo not drawn) registered a melting point of 128 °C.

In turn, `CCC(Cn1cncn1)(C(N)=O)c1ccc(Cl)cc1Cl` (stereo not drawn) had a melting point of 164 to 165 °C.

Regarding `CC(=O)N1CCN(Cc2nnc(-c3cc4cccc(N(C)S(=O)(=O)c5cccs5)c4[nH]3)s2)CC1`, the melting point is 194 to 195 °C.

Compound `O=C(Nc1ccc2cc(CN3CCC(CCO)CC3)cnc2c1)c1ccc(-c2ccc(F)cc2)cc1` came in with a melting point of 193 to 196 °C.

For the compound `CC(C)Cn1c(CO)c(OCCCC(F)(F)F)c2cc(OCc3ccccc3)ccc2c1=O`, the melting point was 112 to 113 °C.

As for `COc1ccc(C(=N)c2ccc(Cl)cc2)c(O)c1`, the melting point lay within 212 to 214 °C.

The compound `O=C(c1ccccc1)c1ccc(O)c2ncccc12` yielded a melting point of 115 to 116 °C.

Take `COc1ccc2ccc(N3C(=O)c4ccccc4C3CC(=O)C3CCCCC3)nc2n1` (stereo not drawn): the melting point was 140 °C.

Compound `O=C(O)C12C3C4C5C3C1C5C42` (stereo not drawn) displayed a melting point of 154 to 155 °C.

`CCNc1nc(C)c(-c2ccnc(Nc3ccc(N4CCCCC4)c(C)c3)n2)s1` yielded a melting point of 213 to 214 °C.

`CC(C)(C)C=C[C@H](O)c1ccc(F)cc1` displayed a melting point of 38 to 40 °C.

As to `CCCCCCCCCCOc1ccc(CO)cc1`, the melting point fell in the range of 54 to 55 °C.

Turning to `CCCCS(=O)(=O)Oc1cn(C)c2ccccc2c1=O`, the melting point is 143 to 144 °C.

`COc1ccc(N2CCN(c3c(C)c(C)c4c(c3C)C(O)(c3ccc(F)nc3)C(C)(C)O4)CC2)cc1` (stereo not drawn) showed a melting point of 129 to 131 °C.

Regarding `CCn1c(=O)c(C(=O)O)c(-c2ccccc2Cl)c2cc(C)c(C)cc21`, the melting point lay in the range of 168 to 170 °C.

`O=C1C2=C(CCCC2)C(=O)N1c1c(F)cc(F)cc1F` returned a melting point of 91 to 92 °C.

As for `COc1cc(C(C)=O)ccc1OCCCN1CCN(n2ncc3ccc(F)cc32)CC1`, the melting point was in the range of 135 to 137 °C.

The compound `CC(C)(C)c1ccccc1NC(=O)C(=O)O` showed a melting point of 111 to 113 °C.

Compound `CN1Cc2c(ccc(F)c2Cl)-n2c(c(C#CC(C)(C)O)[nH]c2=O)C1` yielded a melting point of 208 to 209 °C.

The compound `CCCCCOc1ccc(-c2ncc(C#N)c(Cl)n2)cc1` displayed a melting point of 140 to 142 °C.

`CC(C(=O)NCCN(C)C)n1cc(-c2ccc(Oc3ccccc3)cc2)c2c(N)ncnc21` (stereo not drawn) returned a melting point of 163 to 164 °C.

`CN1CCN(Cc2cnc(S)n2Cc2cc(F)cc(F)c2)CC1`: the melting point was 200 to 201 °C.

`COc1ccc2c(c1)CCc1c-2cc(-c2ccccc2)n1-c1ccc(O)c(C(=O)O)c1` displayed a melting point of 233 to 234 °C.

On to `CC(=O)OCC1OC(n2cc(Cc3ccc(OC(F)(F)F)cc3)c3c(Cl)cccc32)C(OC(C)=O)C(OC(C)=O)C1OC(C)=O` (stereo not drawn), for which the melting point fell in the range of 193 to 194 °C.

Take `CC(C)n1c(NC(=O)c2ccccc2)nc2ccccc2c1=O`: the melting point was 156 to 158 °C.

In turn, `CC(Cl)OC(=O)C=Cc1cc(N=C=O)ccc1Cl` (stereo not drawn) came in with a melting point of 48 to 50 °C.

As to `Oc1cccc2c1C[C@@H](O)[C@H](O)C2` (relative stereo), the melting point was 183 to 184 °C.

The compound `N#Cc1ccc(-c2nc(C(F)(F)F)c(C(=O)O)s2)cc1` gave a melting point of 195 to 196 °C.

For `CN(C(=O)CNc1cc(-c2ccccc2)nc(-c2ccc(C(F)(F)F)cc2)n1)C1CC1`, the melting point lay in the range of 179 to 180 °C.

Compound `CCCCN(CCCC)c1ccc(C=CC=Cc2ccc(C=CC3=C(C#N)C(=C(C#N)C#N)OC3(C)C(F)(F)F)s2)c(OC)c1` (stereo not drawn) gave a melting point of 161 to 162 °C.

Compound `CCNC(=O)CN(c1ccccc1)[C@@H]1c2cc(C#N)ccc2OC(C)(C)[C@@H]1O` registered a melting point of 202 to 204 °C.

`O=C(O)C(CC1CCCC1)c1ccc([N+](=O)[O-])cc1` (stereo not drawn): the melting point was 119 to 125 °C.

As to `COc1cc2ccc(-c3ccccc3)cc2cc1SC`, the melting point was in the range of 124 to 125 °C.

(Values after a melting point compilation (Tetko et al.; mined from patent text by program, amines drawn as free bases though some values may be those of a salt).)
